System: ApoB mRNA level in the liver
Experiment: Liver ApoB mRNA knockdown by 1:57 SNALP with ApoB siRNA in mice (QuantiGene assay, normalized to GAPDH mRNA)
Format: in vivo, female BALB/c mice
Conditions: IV bolus 0.05 mg/kg siRNA, mouse liver 48 h after dosing, compared to SNALP containing the C2K benchmark cationic lipid
Protocol: In particular, the objective of this study was to assess the ApoB dose response gene silencing activity in the mouse liver of 1:57 SNALP containing various novel trialkyl cationic lipids of Formula I. The ApoB siRNA sequence used in this study is provided in Table 1.
Just prior to the first treatment, animals were weighed and dose amounts were calculated based on the weight of individual animals (equivalent to 10 mL/kg, rounded to the nearest 10 μL). The test article was administered by IV injection through the tail vein once on Day 0 (1 dose total per animal).
Animals were sacrificed on Day 2, 48 h after test article administration. […] A brief necropsy was performed and observations recorded. […]
Body weight was reported for individual animals in addition to group mean and standard deviation of the group mean. Data were expressed in terms of the measured unit (grams) and the group mean difference from PBS vehicle control treatment was calculated for this expression (include SD). For body weights, individual animal data were also expressed as % of pre-treatment value and the group means were expressed as % change from pre-treatment value (include SD). […] Drug activity was measured using a QuantiGene assay for ApoB mRNA level in the liver (normalized to GAPDH mRNA level). […] Data were expressed in terms of the measured unit as well as difference from PBS vehicle control treatment. […]

## CCCCC/C=C\C/C=C\CCCCCCCCC(OC(=O)CCCCN(C)C)C(O)(CCCCCCCC/C=C\C/C=C\CCCCC)CCCCCCCC/C=C\C/C=C\CCCCC (stereo not shown) [Compound 13-B4, (6Z,9Z,29Z,32Z)-20-hydroxy-20-((9Z,12Z)-octadeca-9,12-dienyl)octatriaconta-6,9,29,32-tetraen-19-yl 5-(dimethylamino)pentanoate]
  liver ApoB mRNA knockdown activity (ApoB silencing activity): unexpectedly improved ApoB silencing activity

— US8466122B2, “Trialkyl cationic lipids and methods of use thereof” (Protiva Biotherapeutics, Inc., priority 2010, dated 2013)
